Literature values, collected in patent US20100183739A1, “Treatment and prevention of systemic bacterial infections in plants using antimicrobial metal compositions” (priority 2009, published 2010).

Tested on: bacteria
Conditions: Appl Environ Microbiol. 2008; 74(7): 2171-2178

Compound: [Ag+] [silver ion]
- silver ion concentration for inhibition of bacterial growth: below 5 ppm
